In general, IC50 refers to the concentration that gives 50% inhibition.

Positions of bridges follow the written chain, without caps; N, C: chain ends. Non-standard residues stand in square brackets, D forms with d. Residues, ends and D or L forms follow the SMILES beside them.

For one assay, the target named is T1, GBA3 (Homo sapiens, UniProt Q9H227).
T1 construct: expressed in transfected cells
T1 sequence (Q9H227 1-469): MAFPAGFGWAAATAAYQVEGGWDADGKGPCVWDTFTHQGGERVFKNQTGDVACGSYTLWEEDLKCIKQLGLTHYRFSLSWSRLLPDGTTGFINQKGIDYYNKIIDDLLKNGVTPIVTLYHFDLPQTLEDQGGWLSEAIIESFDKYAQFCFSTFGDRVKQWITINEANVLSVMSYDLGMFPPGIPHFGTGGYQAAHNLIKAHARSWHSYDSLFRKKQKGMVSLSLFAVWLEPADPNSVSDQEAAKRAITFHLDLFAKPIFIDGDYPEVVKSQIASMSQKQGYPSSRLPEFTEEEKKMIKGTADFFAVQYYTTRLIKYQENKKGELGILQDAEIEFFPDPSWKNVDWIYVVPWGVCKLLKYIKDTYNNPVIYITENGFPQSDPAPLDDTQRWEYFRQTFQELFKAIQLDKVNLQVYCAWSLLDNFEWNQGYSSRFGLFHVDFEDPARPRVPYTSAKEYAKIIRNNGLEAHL
Kind of assay: GBA3 inhibition in overexpressing HEK293T lysates. To be noted: 100 mM HEPES, 4-MU substrate. The assay is classed as biochemical. On the procedure: (§1) Based on the pull-down validation, a set of eight cyclic peptides (L1, L2, L4, L6, D1, D8, D12 and D13) were identified, synthesized, and evaluated for their inhibitory potency against recombinant human GBA1 (rhGBA1, Cerezyme®) and their selectivity over human β-glucosidases GBA2 and GBA3. Half-maximum inhibitory concentration (IC50) values for β-glucosidases were determined in vitro by measuring hydrolysis of 4-methylumbelliferyl-β-D-glucopyranoside (4-MU-β-D-Glu) fluorogenic substrate. […]
(§2) Pure product fractions were pooled, lyophilized, and dissolved again in DMSO before concentration was determined by A280 using a sample diluted in phosphate buffer at pH 7.4 and extinction coefficients determined from the sequence using the Expasy ProtParam online tool (https://web.expasy.org/protparam/). […]
2.5. In vitro IC50 and Ki measurements […]
nM) at 37 °C for 30 min. Following this, 100 µL of 4MU substrate was added and the samples were again incubated at 37 °C for 30 min. The reaction was quenched using excess 1 M NaOH-glycine (200 µL, pH 10.3) and 4MU fluorescence was measured using a LS55 fluorimeter (λEx 366 nm and λEm 445 […]
GBA2 and GBA3 IC50 values were determined following a similar protocol,5 using stable GBA2 or GBA3 HEK293T over-expression cell lysates and McIlvaine buffer pH 5.8 with 0.1 % BSA (w/v) and 100 mM HEPES with 0.1 % BSA, respectively. Covalent inhibitor of endogenous GBA1 (1 µM Bodipy green-cyclophellitol β-epoxide activity based probe) was added for both GBA2 and GBA3 assays, and GBA2 inhibitor N-(5-adamantane-1-yl-methoxy-pentyl)-deoxynojirimycin, AMP-DNM at 1 nM) was added for GBA3 assay. Cell lysates were pre-incubated with the aforementioned GBA1/GBA2 inhibitors for 30 min at 37 °C (12.5 µL) and subsequently incubated with the tested ligands at a range of concentrations for 30 min at 37 °C (12.5 µL), after which 100 µL 4MU-β-D-glucopyranoside was added for a final incubation of 30 min at 37 °C, quenched with 200 µL 1 M NaOH-glycine (pH 10.3) and fluorescence was measured. IC50 values were calculated using GraphPad Prism version 8.

Assay [1] concerns the target T2, recombinant human GBA1 (rhGBA1, Cerezyme) (Homo sapiens, UniProt P04062, R534H).
T2 construct: purchased Cerezyme
T2 sequence (P04062 40-536 R534H): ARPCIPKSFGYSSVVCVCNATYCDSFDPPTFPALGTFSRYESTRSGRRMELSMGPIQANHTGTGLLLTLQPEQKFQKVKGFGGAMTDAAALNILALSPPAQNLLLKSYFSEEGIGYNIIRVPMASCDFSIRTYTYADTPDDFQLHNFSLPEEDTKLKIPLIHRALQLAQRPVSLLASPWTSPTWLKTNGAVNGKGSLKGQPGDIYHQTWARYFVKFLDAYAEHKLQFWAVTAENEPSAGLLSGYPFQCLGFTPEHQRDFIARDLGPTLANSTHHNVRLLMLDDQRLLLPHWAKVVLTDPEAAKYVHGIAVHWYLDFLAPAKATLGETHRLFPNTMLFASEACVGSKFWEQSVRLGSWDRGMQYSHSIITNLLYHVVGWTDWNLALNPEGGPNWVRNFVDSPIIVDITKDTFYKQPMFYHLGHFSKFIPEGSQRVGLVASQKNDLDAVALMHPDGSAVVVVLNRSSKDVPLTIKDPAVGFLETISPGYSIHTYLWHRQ
As to the kind of experiment: In vitro rhGBA1 inhibition, 4-MU-β-D-glucopyranoside hydrolysis. The assay is classed as biochemical. The note with it: Cerezyme 14 nM, 3.7 mM 4-MU-β-D-glucopyranoside, McIlvaine pH 5.2, 30 min pre-incubation 37 °C + 30 min, mean ± SD from 3 technical triplicates; for IC50: SD. On the procedure:
as §1, §2
2.5. In vitro IC50 and Ki measurements
For GBA1, IC50 values were determined using the recombinant human GBA1 (rhGBA1, Cerezyme) following described procedures.4 Enzyme activity was measured using 3.7 mM 4-methylumbeliferone (4MU)-β-D-glucopyranoside in 150 mM McIlvaine buffer pH 5.2 supplemented with 0.1% bovine serum albumin (BSA) (w/v), 0.1% Triton X-100 (v/v), and 0.2% sodium taurocholate (w/v). Varying concentrations of inhibitor (12.5 µL) were incubated with 12.5 µL of enzyme (final concentration 14 nM) at 37 °C for 30 min. Following this, 100 µL of 4MU substrate was added and the samples were again incubated at 37 °C for 30 min. The reaction was quenched using excess 1 M NaOH-glycine (200 µL, pH 10.3) and 4MU fluorescence was measured using a LS55 fluorimeter (λEx 366 nm and λEm 445 […]
30 min at 37 °C (12.5 µL) and subsequently incubated with the tested ligands at a range of concentrations for 30 min at 37 °C (12.5 µL), after which 100 µL 4MU-β-D-glucopyranoside was added for a final incubation of 30 min at 37 °C, quenched with 200 µL 1 M NaOH-glycine (pH 10.3) and fluorescence was measured. IC50 values were calculated using GraphPad Prism version 8.

Consider `CC[C@H](C)[C@H](NC(=O)[C@H](CC(C)C)NC(=O)[C@H](Cc1ccc(O)cc1)NC(=O)[C@H](Cc1ccc(O)cc1)NC(=O)[C@@H]1CSCC(=O)N[C@H](Cc2ccc(O)cc2)C(=O)N[C@@H](CCCNC(=N)N)C(=O)N[C@@H](C(C)C)C(=O)N1)C(=O)N[C@H](C(=O)N[C@H](C(=O)N[C@@H](CC(C)C)C(=O)N[C@@H](CC(=O)O)C(=O)N[C@@H](CS)C(N)=O)C(C)C)[C@@H](C)O` [D1] ({CH2CO}-[dY]RVCYYLITVLDC-NH2; thioether N-4), for which the IC50 is greater than 100 µM at GBA3 and 0.005 ± 0.003 µM in assay [1]. The “rhGBA1 IC50” value in assay [1] was “low nanomolar”.
Consider `CC[C@H](C)[C@@H]1NC(=O)[C@H](Cc2ccc(O)cc2)NC(=O)CSC[C@@H](C(N)=O)NC(=O)[C@H](Cc2c[nH]c3ccccc23)NC(=O)[C@H](CCC(N)=O)NC(=O)[C@H]([C@@H](C)CC)NC(=O)[C@H]([C@@H](C)CC)NC(=O)[C@@H]2CCCN2C(=O)[C@H](C(C)C)NC(=O)[C@H](Cc2ccc(O)cc2)NC(=O)[C@H](Cc2c[nH]c3ccccc23)NC(=O)[C@H](CO)NC1=O` [L6] ({CH2CO}-YISWYVPIIQWC-NH2; thioether N-12), for which the IC50 is greater than 100 µM on GBA3 and 5.66 ± 2.04 µM in assay [1].
`CC[C@H](C)[C@@H]1NC(=O)[C@H](CO)NC(=O)[C@H](CS)NC(=O)CNC(=O)CNC(=O)[C@H](CC(C)C)NC(=O)[C@H](Cc2ccc(O)cc2)NC(=O)[C@H](C(C)C)NC(=O)[C@H](CC(C)C)NC(=O)[C@H](CCCNC(=N)N)NC(=O)[C@@H]2CCCN2C(=O)[C@H](Cc2ccc(O)cc2)NC(=O)CSC[C@@H](C(N)=O)NC(=O)[C@H](CCC(=O)O)NC(=O)[C@H](CC(C)C)NC(=O)[C@H](CC(C)C)NC1=O` [L1] ({CH2CO}-YPRLVYLGGCSILLEC-NH2; thioether N-16): at GBA3, the IC50 is greater than 100 µM. For the same molecule, in assay [1], the “rhGBA1 IC50” value was “high micromolar range” and the IC50 was found to be 138 ± 55.8 µM.
`CC(C)C[C@H](NC(=O)[C@@H](NC(=O)[C@H](CCCNC(=N)N)NC(=O)[C@@H]1CSCC(=O)N[C@H](Cc2ccc(O)cc2)C(=O)N[C@@H]([C@@H](C)O)C(=O)N2CCC[C@H]2C(=O)NCC(=O)N[C@@H](Cc2ccc(O)cc2)C(=O)N[C@@H](C(C)C)C(=O)N[C@@H](Cc2ccc(O)cc2)C(=O)N1)C(C)C)C(=O)N[C@@H](CCCCN)C(=O)N[C@@H](Cc1ccc(O)cc1)C(=O)N[C@@H](CS)C(N)=O` [D8] ({CH2CO}-[dY]TPGYVYCRVLKYC-NH2; thioether N-8): the IC50 at GBA3 is greater than 100 µM; in assay [1] it was 0.012 ± 0.011 µM.
At GBA3, `CC(C)C[C@@H]1NC(=O)CNC(=O)[C@H](CC(C)C)NC(=O)[C@@H](Cc2ccc(O)cc2)NC(=O)CSC[C@@H](C(N)=O)NC(=O)[C@H](CO)NC(=O)[C@H](CCCCN)NC(=O)[C@H](CC(C)C)NC(=O)[C@H](Cc2ccccc2)NC(=O)[C@H](CCCNC(=N)N)NC(=O)[C@H](Cc2ccc(O)cc2)NC(=O)[C@H](Cc2c[nH]c3ccccc23)NC1=O` [D12] ({CH2CO}-[dY]LGLWYRFLKSC-NH2; thioether N-12) had an IC50 of roughly 85 µM. In assay [1], the “rhGBA1 IC50” value is “low nanomolar” and the IC50 was found to be 0.004 ± 0.004 µM.
As for `CC(C)C[C@@H]1NC(=O)CNC(=O)[C@H](Cc2ccccc2)NC(=O)[C@H](CC(C)C)NC(=O)[C@@H]2CCCN2C(=O)[C@H](Cc2ccc(O)cc2)NC(=O)CSC[C@@H](C(=O)N2CCC[C@H]2C(=O)N[C@@H](CC(N)=O)C(=O)N[C@@H](Cc2c[nH]c3ccccc23)C(=O)N[C@@H](Cc2ccccc2)C(=O)N2CCC[C@H]2C(=O)N[C@@H](Cc2ccc(O)cc2)C(=O)N[C@@H](CCC(N)=O)C(=O)N[C@@H](CS)C(N)=O)NC(=O)[C@H](CO)NC(=O)[C@H](Cc2ccccc2)NC1=O` [L4] ({CH2CO}-YPLFGLFSCPNWFPYQC-NH2; thioether N-9), the half-inhibitory concentration (IC50) against GBA3 is greater than 100 µM. Moreover, in assay [1], the “rhGBA1 IC50” value is “low nanomolar” and the IC50 was determined as 0.009 ± 0.004 µM.
Consider `CC[C@H](C)[C@H](NC(=O)[C@H](CCCNC(=N)N)NC(=O)[C@@H]1CSCC(=O)N[C@@H](Cc2ccc(O)cc2)C(=O)N[C@@H](C)C(=O)N[C@@H](Cc2ccc(O)cc2)C(=O)N[C@@H](Cc2c[nH]c3ccccc23)C(=O)N[C@@H](Cc2c[nH]c3ccccc23)C(=O)N[C@@H](CC(C)C)C(=O)N1)C(=O)N1CCC[C@H]1C(=O)N[C@@H](Cc1c[nH]c2ccccc12)C(=O)N[C@@H](CC(C)C)C(=O)N[C@@H](CO)C(=O)N[C@H](C(N)=O)C(C)C` [L2] ({CH2CO}-YAYWWLCRIPWLSV-NH2; thioether N-7), for which the IC50 against GBA3 is greater than 100 µM; in assay [1] it was 0.34 ± 0.16 µM.

Values taken from paper PMC11808397, “Development of selective nanomolar cyclic peptide ligands as GBA1 enzyme stabilisers” (RSC Chemical Biology, 2025).
